The values that follow come from US8361999B2, “Methods of treating cholesterol gallstone disease with ezetimibe” (Pontificia Universidad Catolica de Chile, priority 2005, dated 2013).

What all share (assay type): in vivo, mouse
Test [1] concerns C57BL/6J mice. Nature of the test: Lithiasis of the gallbladder and cholesterol crystals, protocol #2 (Ezetimibe in lithogenic diet, 30 days). On the procedure: We used mice C57BL/6J susceptible to the development of cholelithiasis originally obtained from Jackson Corp (Bar Harbor, Me., USA) and the colonies were grown in our Laboratory of Gastroenterology, Facultad de Medicina, P. Universidad Católica de Chile. The experimental groups were fed a control chow diet low in cholesterol (<0.02% cholesterol, Prolab RMH3000, PMI Feeds Inc., St. Louis, Mo.) or a lithogenic diet (1.25% cholesterol, 0.5% cholic acid, 15% fat, TD90221, Harlan Teklad, Madison, Wis.) (Amigo et al. 2000). These mice were also treated with Ezetimibe (Zetia®, Merk/Schering Plough) or placebo. In protocol #1 Zetia® tablets were grinded in a porcelain mortar and dissolved in water to be administered to the mice in one daily dose (08 h) of 5 mg/Kg weight by gavage in a final volume of […]; the control groups were given the same volume of water by gavage without the drug. […]
Surgery and sample harvest. […] Afterwards, the common biliary duct is cannulated (biliary fistula) with a P-10 polyethylene cannula to collect bile during 15 minutes, determine bile flow by gravimetry (1 g bile=1 ml; bile flow is expressed as μl/min/g of mouse liver) and for posterior chemical analysis of biliary lipids and glutathione, as specified later. […]

In test [2] the test system is MRP2. Nature of the test: Hepatic expression of MRP2 (Northern blot). The following applies: 14 days. As for the experimental part:
(§1) Expression of Specific Bile Salts (Ntcp, Bsep), Phospholipid (MDR2) and Organic Anions or Glutathione (MRP2); And Determination of Glutathione Synthesis (Gluthamylcystein-Synthetase (GGCS)).
(§2) Total RNA extraction. 80 mg hepatic tissue frozen at −70° C. was homogenized in 800 μl solution D, following the method described by Chomczynski and Sacchi, 1987. The RNA concentration was calculated by measuring the absorbance at 260 nm and its purity by the ratio OD260/OD280. The samples are stored at −20° C. RNA electrophoresis. 10 μg of total RNA are dried under gaseous N2 or vacuum for 10 minutes. 10 μl loading buffer were added, and the samples heated to 65° C., loaded into a denaturing 1% agarose/formaldehyde gel and run at 100 volts for 4 hours. The RNA integrity was determined by the clear visualization of the 28 S and 18 S ribosomal RNAs (FIG. 8).
(§3) Northern Blot and hybridization with radioactive probes. The gel with the RNA samples is washed with DEPC H2O for 10 minutes to eliminate formaldehyde and then incubated for 20 minutes with 50 mM NaOH for partial RNA hydrolysis. After a 10 minute wash with DEPC H2O to eliminate NaOH, the samples are transferred from the gel to Nylon membranes (Hybond-N, Amersham Pharmacia) over night by a capillary system. […]
(§4) Probe labeling by “de novo synthesis”. […] The percentage of incorporated radioactivity into the probe was always over 60%. […]

Test [3] concerns MDR2. As to the kind of experiment: Hepatic expression of phospholipid transporter MDR2 (Northern blot). As for the experimental part:
as §1, §2, §3, §4

Test [4] has as its system GGCS. Nature of the test: Hepatic expression of gamma-gluthamylcystein-synthetase (Northern blot). The following applies: 14 days. As for the experimental part: as §1, §2, §3, §4

“Also recorded” adds a separate entry of the source.

Take `O=C1[C@H](CC[C@H](O)c2ccc(F)cc2)[C@@H](c2ccc(O)cc2)N1c1ccc(F)cc1` [Ezetimibe, (−)-1-(4-fluorophenyl)-(3R)-[3-(4-fluorophenyl)-(.S)-hydroxypropyl]-(4S)-(4-hydroxyphenyl)-2-azetidinone]: the “mice that developed gallstones or cholesterol crystals in the gallbladder” value in test [1] (lithogenic diet plus Ezetimibe 5-6 mg/kg/day in the diet, 30 days, 100% on lithogenic diet alone) is 0%. The “formation of cholesterol gallstones” value in test [1] (lithogenic diet plus Ezetimibe in the diet, 30 days (FIG. 5)) is recorded as “inhibits; also recorded: completely inhibited”. Also, in test [2], the “hepatic expression of MRP2, lithogenic diet plus Ezetimibe vs lithogenic diet” value is recorded as “no significant differences”. For the same compound, the “phospholipid transporter MDR2 at the mRNA level” value in test [3] (lithogenic diet plus Ezetimibe vs lithogenic diet, 14 days) was “small but statistically significant decrease; also recorded: slight but statistically significant decrease”. Moreover, the mdr2 protein levels result in test [3] (lithogenic diet plus Ezetimibe, data not shown) is “no concomitant decrease”. Moreover, the “hepatic expression of GGCS, lithogenic diet plus Ezetimibe vs lithogenic diet” value in test [4] is reported as “no significant differences”.
